Data as given in article PMC7045412, “Natural biased signaling of hydroxycarboxylic acid receptor 3 and G protein-coupled receptor 84” (Cell Communication and Signaling : CCS, 2020).

Experiments:
[1] = molecular target: G protein-coupled receptor 84 (GPR84) (Homo sapiens, UniProt Q9NQS5); experiment: cAMP inhibition, DMR and ERK assays in receptor-transfected CHO-K1/HEK293-T cells; format: cell-based
[2] = molecular target: T1, hydroxycarboxylic acid receptor 3 (HCA3) (Homo sapiens, UniProt P49019); experiment: DMR ([…]) in receptor-transfected CHO-K1 cells; format: cell-based
T1 construct: gene HCAR3
T1 sequence (P49019 whole entry): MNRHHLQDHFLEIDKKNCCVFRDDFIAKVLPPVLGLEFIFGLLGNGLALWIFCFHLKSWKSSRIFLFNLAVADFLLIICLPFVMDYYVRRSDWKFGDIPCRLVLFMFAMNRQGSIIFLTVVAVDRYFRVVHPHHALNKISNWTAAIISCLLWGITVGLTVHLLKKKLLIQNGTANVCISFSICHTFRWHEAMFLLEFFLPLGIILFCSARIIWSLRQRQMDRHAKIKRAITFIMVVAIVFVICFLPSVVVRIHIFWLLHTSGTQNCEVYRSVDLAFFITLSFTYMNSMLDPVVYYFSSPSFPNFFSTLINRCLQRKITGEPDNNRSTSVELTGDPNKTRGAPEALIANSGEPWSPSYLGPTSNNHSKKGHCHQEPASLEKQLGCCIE

G protein-coupled receptor 84 (GPR84), sequence (Q9NQS5 whole entry): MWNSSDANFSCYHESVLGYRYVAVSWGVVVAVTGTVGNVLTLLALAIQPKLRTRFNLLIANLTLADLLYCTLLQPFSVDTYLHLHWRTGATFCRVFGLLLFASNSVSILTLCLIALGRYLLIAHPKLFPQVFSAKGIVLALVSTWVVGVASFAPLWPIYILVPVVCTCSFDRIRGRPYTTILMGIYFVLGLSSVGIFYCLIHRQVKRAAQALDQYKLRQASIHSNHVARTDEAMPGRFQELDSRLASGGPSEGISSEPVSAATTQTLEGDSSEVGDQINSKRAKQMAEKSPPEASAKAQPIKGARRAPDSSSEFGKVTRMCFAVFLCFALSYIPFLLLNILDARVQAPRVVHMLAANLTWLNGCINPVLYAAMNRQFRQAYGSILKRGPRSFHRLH

SMILES | EC50 [1] | DMR (250 μM) in receptor-transfected CHO-K1 cells [2]
CCCCCCCC(O)CC(=O)O (stereo not drawn) [3HDec, 3-hydroxydecanoic acid] | In contrast, C10 and 3HDec but not 3HO activated GPR84 | –
CCCCCCCCCC(=O)O [C10, decanoic acid] | C10 and 3HDec activated GPR84. | –
N[C@H](Cc1ccccc1)C(=O)O [D-Phe, D-phenylalanine] | – | dynasore affected the DMR-response of human and gorilla HCA3 to D-Phe and L-PLA in a similar manner
